Laboratory results reported in US20250206724A1, “SUBSTITUTED 3-AMINO INDAZOLE DERIVATIVES AS KINASE INHIBITORS” (NERVIANO MEDICAL SCIENCES S.R.L., priority 2022, published 2025).
Counter-ions that a name gives are not always drawn.

Target: T1, CDK11A (Homo sapiens, UniProt Q9UQ88)
T1 sequence (Q9UQ88 346-783): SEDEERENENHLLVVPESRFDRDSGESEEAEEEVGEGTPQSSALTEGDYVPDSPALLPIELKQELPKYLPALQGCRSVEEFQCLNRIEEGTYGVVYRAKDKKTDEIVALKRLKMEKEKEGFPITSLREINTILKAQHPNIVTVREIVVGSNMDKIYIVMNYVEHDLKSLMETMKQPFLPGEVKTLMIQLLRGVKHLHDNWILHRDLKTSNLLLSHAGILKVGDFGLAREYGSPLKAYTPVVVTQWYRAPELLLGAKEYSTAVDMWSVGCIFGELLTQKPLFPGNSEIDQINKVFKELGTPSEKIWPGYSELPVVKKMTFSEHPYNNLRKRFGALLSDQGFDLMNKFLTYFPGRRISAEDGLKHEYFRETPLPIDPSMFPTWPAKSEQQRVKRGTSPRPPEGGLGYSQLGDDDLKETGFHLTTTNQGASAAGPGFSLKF
Conditions: displacement of SNS-032-Atto590 probe (0.002 μM) from CDK11A-p58 (0.032 uM), fluorescence polarization
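Further: compound preincubated 30 min with CDK11A-p58, then probe added and polarization (mP) read 15 min later, 0% displacement is probe plus enzyme, 100% is probe alone.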

Row | SMILES | DC50 [nM]
1 | CN1CCC(C(=O)Nc2n[nH]c3ccc(-c4ccc(F)c(F)c4F)cc23)CC1 [compound 128, 1-Methyl-N-[5-(2,3,4-trifluorophenyl)-1H-indazol-3-yl]piperidine-4-carboxamide hydrochloride] | 468
2 | CC(C)OC(=O)n1nc(NC(=O)[C@@H]2CCC(C)(C)NC2)c2cc(-c3cc(C#N)ccc3Cl)ccc21 (single isomer, unassigned) [cpd 226, hydrochloride] | 1010
3 | CC(C)(C)C(=O)OCOC(=O)N1CCC[C@@H](C(=O)Nc2n[nH]c3ccc(-c4cc(C#N)ccc4Cl)cc23)C1 [compound 193, [(2,2-Dimethylpropanoyl)oxy]methyl (3R)-3-{[5-(2-chloro-5-cyanophenyl)-1H-indazol-3-yl]carbamoyl}-piperidine-1-carboxylate] | 340
4 | COCC(C)N1CCC(C(=O)Nc2n[nH]c3ccc(-c4c(F)cccc4Cl)cc23)CC1 (stereo not shown) [cpd 67, N-[5-(2-Chloro-6-fluorophenyl)-1H-indazol-3-yl]-1-(1-methoxypropan-2-yl)piperidine-4-carboxamide hydrochloride] | 151
5 | CN1CCC(C(=O)Nc2n[nH]c3ccc(-c4cc(C(F)(F)F)ccc4Cl)cc23)CC1 [cpd 94, N-{5-[2-Chloro-5-(trifluoromethyl)phenyl]-1H-indazol-3-yl}-1-methylpiperidine-4-carboxamide hydrochloride] | 592
6 | Nc1ccc(-c2ccc3[nH]nc(NC(=O)C4CCCNC4)c3c2)c(Cl)c1 (stereo not shown) [cpd 1, N-[5-(4-Amino-2-chlorophenyl)-1H-indazol-3-yl]piperidine-3-carboxamide dihydrochloride] | 49
7 | Nc1cccc(-c2ccc3[nH]nc(NC(=O)C4CCCNC4)c3c2)c1F (stereo not shown) [cpd 11, N-[5-(3-Amino-2-fluorophenyl)-1H-indazol-3-yl]piperidine-3-carboxamide hydrochloride] | 183
8 | COc1cc(F)c(-c2ccc3[nH]nc(NC(=O)C4CCN(C)CC4)c3c2)c(F)c1 [cpd 120, N-[5-(2,6-Difluoro-4-methoxyphenyl)-1H-indazol-3-yl]-1-methylpiperidine-4-carboxamide hydrochloride] | 619
9 | CC(=O)c1ccc(Cl)c(-c2ccc3[nH]nc(NC(=O)[C@@H]4CCNC4)c3c2)c1 [cpd 38, (3R)-N-[5-(5-Acetyl-2-chlorophenyl)-1H-indazol-3-yl]pyrrolidine-3-carboxamide hydrochloride] | 16
10 | CN(C)C1CCC(C(=O)Nc2n[nH]c3ccc(-c4c(Cl)cccc4Cl)cc23)CC1 (stereo not shown) [compound 166, N-[5-(2,6-Dichlorophenyl)-1H-indazol-3-yl]-4-(dimethylamino)cyclohexanecarboxamide hydrochloride] | 133
11 | O=C(Nc1n[nH]c2ccc(-c3c(Cl)cccc3Cl)cc12)[C@H]1CCNC1 [compound 168, (3S)-N-[5-(2,6-Dichlorophenyl)-1H-indazol-3-yl]pyrrolidine-3-carboxamide hydrochloride] | 98
12 | CN1CCC(C(=O)Nc2n[nH]c3ccc(-c4c(F)ccc(C#N)c4F)cc23)CC1 [compound 134, N-[5-(3-Cyano-2,6-difluorophenyl)-1H-indazol-3-yl]-1-methylpiperidine-4-carboxamide] | 125
13 | O=C(Nc1n[nH]c2ccc(-c3ccc(Cl)cc3C(F)(F)F)cc12)[C@@H]1CCCNC1 [cpd 45, (3R)-N-{5-[4-Chloro-2-(trifluoromethyl)phenyl]-1H-indazol-3-yl}piperidine-3-carboxamide hydrochloride] | 88
14 | CN1CCC(C(=O)Nc2n[nH]c3ccc(-c4ccccc4C(F)(F)F)cc23)CC1 [cpd 104, 1-Methyl-N-{5-[2-(trifluoromethyl)phenyl]-1H-indazol-3-yl}piperidine-4-carboxamide hydrochloride] | 330
15 | CC(C)NC1CC(C(=O)Nc2n[nH]c3ccc(-c4cc(C#N)ccc4Cl)cc23)C1 (stereo not shown) [compound 148, N-[5-(2-Chloro-5-cyanophenyl)-1H-indazol-3-yl]-3-(propan-2-ylamino)cyclobutanecarboxamide hydrochloride] | 20
16 | CN1CCC(C(=O)Nc2n[nH]c3ccc(-c4ccc(O)cc4Cl)cc23)CC1 [cpd 111, N-[5-(2-Chloro-4-hydroxyphenyl)-1H-indazol-3-yl]-1-methylpiperidine-4-carboxamide hydrochloride] | 141
17 | Cc1ccc(-c2ccc3[nH]nc(NC(=O)C4CCN(C)CC4)c3c2)c(F)c1F [compound 132, N-[5-(2,3-Difluoro-4-methylphenyl)-1H-indazol-3-yl]-1-methylpiperidine-4-carboxamide hydrochloride] | 409
18 | CN1CCC(C(=O)Nc2n[nH]c3ccc(-c4ccccc4C#N)cc23)CC1 [cpd 79, N-[5-(2-Cyanophenyl)-1H-indazol-3-yl]-1-methylpiperidine-4-carboxamide p-toluensulfonate] | 277
19 | O=C(C[C@@H]1CCCN1)Nc1n[nH]c2ccc(-c3c(Cl)cccc3Cl)cc12 [compound 162, N-[5-(2,6-Dichlorophenyl)-1H-indazol-3-yl]-2-[(2S)-pyrrolidin-2-yl]acetamide hydrochloride] | 792
20 | CNC1CCC(C(=O)Nc2n[nH]c3ccc(-c4c(Cl)cccc4Cl)cc23)CC1 (stereo not shown) [compound 144, N-[5-(2,6-Dichlorophenyl)-1H-indazol-3-yl]-4-(methylamino)cyclohexanecarboxamide hydrochloride] | 110
21 | O=C(Nc1n[nH]c2ccc(-c3cc(-c4nnco4)ccc3Cl)cc12)[C@@H]1CCCNC1 [cpd 59, (3R)-N-{5-[2-Chloro-5-(1,3,4-oxadiazol-2-yl)phenyl]-1H-indazol-3-yl}piperidine-3-carboxamide trifluoroacetate] | 57
22 | COC(=O)c1cc(-c2ccc3[nH]nc(NC(=O)[C@@H]4CCCNC4)c3c2)c(F)cc1F [cpd 50, Methyl 2,4-difluoro-5-(3-{[(3R)-piperidin-3-ylcarbonyl]amino}-1H-indazol-5-yl)benzoate hydrochloride] | 164
23 | O=C(Nc1n[nH]c2ccc(-c3cc(F)ccc3Cl)cc12)[C@@H]1CCCNC1 [cpd 52, (3R)-N-[5-(2-Chloro-5-fluorophenyl)-1H-indazol-3-yl]piperidine-3-carboxamide hydrochloride] | 42
24 | CC(C)Oc1ccc2[nH]nc(NC(=O)[C@@H]3CCCNC3)c2c1 [cpd 230, (3R)-N-[5-(Propan-2-yloxy)-1H-indazol-3-yl]piperidine-3-carboxamide hydrochloride] | 27
25 | O=C(Nc1n[nH]c2ccc(OCCF)cc12)[C@@H]1CCCNC1 [cpd 227, (3R)-N-[5-(2-Fluoroethoxy)-1H-indazol-3-yl]piperidine-3-carboxamide hydrochloride] | 71
26 | COCCOc1ccc2[nH]nc(NC(=O)[C@@H]3CCCNC3)c2c1 [cpd 228, (3R)-N-[5-(2-Methoxyethoxy)-1H-indazol-3-yl]piperidine-3-carboxamide hydrochloride] | 406
27 | CC(C)OC(=O)c1ccc(Cl)c(-c2ccc3[nH]nc(NC(=O)[C@@H]4CCCNC4)c3c2)c1 [cpd 56, Propan-2-yl 4-chloro-3-(3-{[(3R)-piperidin-3-ylcarbonyl]amino}-1H-indazol-5-yl)benzoate hydrochloride] | 100
28 | O=C(Nc1n[nH]c2ccc(-c3cc(Cl)ccc3F)cc12)[C@@H]1CCCNC1 [cpd 21, (3R)-N-[5-(5-Chloro-2-fluorophenyl)-1H-indazol-3-yl]piperidine-3-carboxamide hydrochloride] | 46
